Data on six molecules can be found in US10781456B2, “Carbon-neutral and carbon-positive photorespiration bypass routes supporting higher photosynthetic rate and yield” (Max-Planck-Gesellschaft zur Förderung der Wissenschaften …, priority 2015, dated 2020).

Data set [1] concerns the target D-fructose 6-phosphate aldolase encoded by E. coli gene fsaA (UniProt P78055). Conditions: cited from earlier work.
The target of data set [2] is D-fructose 6-phosphate aldolase encoded by E. coli gene fsaB (UniProt P32669). The settings on record: cited from earlier work.
Substrate in data set [3]: CC(C)(COP(=O)(O)OP(=O)(O)OC[C@H]1O[C@@H](n2cnc3c(N)ncnc32)[C@H](O)[C@@H]1OP(=O)(O)O)[C@@H](O)C(=O)NCCC(=O)NCCSC(=O)CO
The data set is described as follows: PCCMe_D407I_Y143H activity for conversion of glycolyl-CoA into tartronyl-CoA (reaction 3#), coupled ATP hydrolysis (PK/LDH) assay. The data set is classed as biochemical, Methylobacterium extorquens. The settings on record: other: 37° C., pH 7.7, ATP hydrolysis assay, 0.125-3 mM glycolyl-CoA, n=2.

Substrate in data set [4]: CC(C)(COP(=O)(O)OP(=O)(O)OC[C@H]1O[C@@H](n2cnc3c(N)ncnc32)[C@H](O)[C@@H]1OP(=O)(O)O)[C@@H](O)C(=O)NCCC(=O)NCCSC(=O)C(O)C(=O)O
Briefly: MCRCa activity for conversion of tartronyl-CoA into glycerate (reactions 4# and 5), NADPH oxidation. It is filed as biochemical, Chloroflexus aurantiacus. Conditions: pH 7.5, 0.4 mM NADPH. Here is the method: For the heterologous expression of the MCRCa protein (amino acid sequence is shown in SEQ ID NO: 8; corresponding nucleic acid sequence encoding the protein is depicted in SEQ ID NO: 7) the previously described pTRC-MCRCa plasmid (Kröger et al., 2011, Analytical biochemistry, 411(1), 100-105) was employed.
Cells were harvested at 10 000×g for 10 min and cell pellets were stored at −80° C. until purification of enzymes. Cell pellets of MCRCa and MCRE overexpressing cells were resuspended in two-fold volume of buffer AStrep (50 mM Tris/HCl, 150 mM NaCl, pH 7.8) containing 0.1 mg mL^−1 DNAse I. The cell suspension was passed through a French pressure cell twice at a pressure of 137 MPa and centrifuged at 100 000×g and 4° C. for 1 h. The supernatant was filtered through a 0.45 μm syringe filter and loaded at a flow rate of 1 mL min^−1 onto a 1 mL StrepTrap™ HP column (GE healthcare) which had previously been equilibrated with 5 column volumes of buffer AStrep. The column was washed with 20 column volumes of buffer AStrep and the protein was eluted with buffer AStrep containing 3 mM desthiobiotin. The enzyme was stored in buffer AStrep containing 20% glycerol.
The kinetics of the MCRCa enzyme for enzymatically converting the substrate tartonyl-CoA into glycerate (via reactions 4# and 5 both catalyzed by MCRCa) were determined spectrophotometrically at 365 nm following the oxidation of NADPH. Per molecule tartronyl-CoA, two molecules of NADPH are oxidized by MCRCa (a first in reaction 4# and a second in reaction 5) The measurements were carried out at 37° C. in a total reaction volume of 200 μL containing 100 mM MOPS buffer (with 5 mM MgCl2, pH 7.5) with an initial NADPH concentration of 0.4 mM NADPH and 23 μg MCRCa.

Setting [5] is: as a substrate, read-out: KM for D-fructose 6-phosphate.
[6] abbreviates: bound stated for both fsaA and fsaB enzymes, read-out: KM (condensation of glycolaldehyde as donor with D-glyceraldehyde 3-phosphate as acceptor).
Setting [7] is: as a substrate, read-out: KM for dihydroxyacetone phosphate.
The mark [8] stands for this setting: other: 37° C., n=3, nonlinear regression.
Where [9] appears, read: other: FIG. 8D and Table 5, 37° C., n=3.

Like-named read-outs stand apart in the source and are kept apart here.

With `O=P(O)(O)OC[C@H]1OC(O)[C@@H](O)[C@@H]1O` (stereo partly drawn) [D-arabinose 5-phosphate], in data set [1] (read-out: KM for D-arabinose 5-phosphate), the Km is approximately 500 µM.

As to `O=P(O)(O)OC[C@H]1OC(O)(CO)[C@@H](O)[C@@H]1O` (stereo partly drawn) [D-fructose 6-phosphate], the Michaelis-Menten constant (Km) in data set [2] (setting [5]) and in data set [1] (setting [5]) was more than 6000 µM throughout.

As to `O=C[C@H](O)COP(=O)(O)O` [D-glyceraldehyde 3-phosphate], the Km in data set [2] (setting [6]) and in data set [1] (setting [6]) was less than 1000 µM in each case.

Regarding `O=C(CO)COP(=O)(O)O` [dihydroxyacetone phosphate], the Km in data set [2] (setting [7]) and in data set [1] (setting [7]) was more than 25000 µM throughout.

B1: propionyl-CoA carboxylase from Methylobacterium extorquens (PCCMe) variant PCCMe_D407I_Y143H (pccA SEQ ID NO: 2; pccB_D407I_Y143H SEQ ID NO: 6) (Methylorubrum … (protein)
chain 1: MKDILEKLEERRAQARLGGGEKRLEAQHKRGKLTARERIELLLDHGSFEEFDMFVQHRSTDFGMEKQKIPGDGVVTGWGTVNGRTVFLFSKDFTVFGGSLSEAHAAKIVKVQDMALKMRAPIIGIFDAGGARIQEGVAALGGHGEVFRRNVAASGVIPQISVIMGPCAGGDVYSPAMTDFIFMVRDTSYMFVTGPDVVKTVTNEVVTAEELGGAKVHTSKSSIADGSFENDVEAILQIRRLLDFLPANNIEGVPEIESFDDVNRLDKSLDTLIPDNPNKPYDMGELIRRVVDEGDFFEIQAAYARNIITGFGRVEGRTVGFVANQPLVLAGVLDSDASRKAARFVRFCNAFSIPIVTFVDVPGFLPGTAQEYGGLIKHGAKLLFAYSQATVPLVTIITRKAFGGAYIVMASKHVGADLNYAWPTAQIAVMGAKGAVEIIFRAEIGDADKIAERTKEYEDRFLSPFVAAERGYIDEVIMPHSTRKRIARALGMLRTKEMEQPWKKHDNIPL
chain 2: MFDKILIANRGEIACRIIKTAQKMGIKTVAVYSDADRDAVHVAMADEAVHIGPAPAAQSYLLIEKIIDACKQTGAQAVHPGYGFLSERESFPKALAEAGIVFIGPNPGAIAAMGDKIESKKAAAAAEVSTVPGFLGVIESPEHAVTIADEIGYPVMIKASAGGGGKGMRIAESADEVAEGFARAKSEASSSFGDDRVFVEKFITDPRHIEIQVIGDKHGNVIYLGERECSIQRRNQKVIEEAPSPLLDEETRRKMGEQAVALAKAVNYDSAGTVEFVAGQDKSFYFLEMNTRLQVEHPVTEMITGLDLVELMIRVAAGEKLPLSQDQVKLDGWAVESRVYAEDPTRNFLPSIGRLTTYQPPEEGPLGGAIVRNDTGVEEGGEIAIHYDPMIAKLVTWAPTRLEAIEAQATALDAFAIEGIRHNIPFLATLMAHPRWRDGRLSTGFIKEEFPEGFIAPEPEGPVAHRLAAVAAAIDHKLNIRKRGISGQMRDPSLLTFQRERVVVLSGQRFNVTVDPDGDDLLVTFDDGTTAPVRSAWRPGAPVWSGTVGDQSVAIQVRPLLNGVFLQHAGAAAEARVFTRREAELADLMPVKENAGSGKQLLCPMPGLVKQIMVSEGQEVKNGEPLAIVEAMKMENVLRAERDGTISKIAAKEGDSLAVDAVILEFA
On to B1, for which, in data set [3], the Michaelis-Menten constant (Km) is on record as 1.0 ± 0.15 mM (glycolyl-CoA) mM and the Vmax is listed as 1.5 ± 0.09 U mg^−1.

B2: malonyl-CoA reductase from Chloroflexus aurantiacus (MCRCa), SEQ ID NO: 8 (Chloroflexus aurantiacus) (protein)
chain: MSGTGRLAGKIALITGGAGNIGSELTRRFLAEGATVIISGRNRAKLTALAERMQAEAGVPAKRIDLEVMDGSDPVAVRAGIEAIVARHGQIDILVNNAGSAGAQRRLAEIPLTEAELGPGAEETLHASIANLLGMGWHLMRIAAPHMPVGSAVINVSTIFSRAEYYGRIPYVTPKAALNALSQLAARELGARGIRVNTIFPGPIESDRIRTVFQRMDQLKGRPEGDTAHHFLNTMRLCRANDQGALERRFPSVGDVADAAVFLASAESAALSGETIEVTHGMELPACSETSLLARTDLRTIDASGRTTLICAGDQIEEVMALTGMLRTCGSEVIIGFRSAAALAQFEQAVNESRRLAGADFTPPIALPLDPRDPATIDAVFDWGAGENTGGIHAAVILPATSHEPAPCVIEVDDERVLNFLADEITGTIVIASRLARYWQSQRLTPGARARGPRVIFLSNGADQNGNVYGRIQSAAIGQLIRVWRHEAELDYQRASAAGDHVLPPVWANQIVRFANRSLEGLEFACAWTAQLLHSQRHINEITLNIPANISATTGARSASVGWAESLIGLHLGKVALITGGSAGIGGQIGRLLALSGARVMLAARDRHKLEQMQAMIQSELAEVGYTDVEDRVHIAPGCDVSSEAQLADLVERTLSAFGTVDYLINNAGIAGVEEMVIDMPVEGWRHTLFANLISNYSLMRKLAPLMKKQGSGYILNVSSYFGGEKDAAIPYPNRADYAVSKAGQRAMAEVFARFLGPEIQINAIAPGPVEGDRLRGTGERPGLFARRARLILENKRLNELHAALIAAARTDERSMHELVELLLPNDVAALEQNPAAPTALRELARRFRSEGDPAASSSSALLNRSIAAKLLARLHNGGYVLPADIFANLPNPPDPFFTRAQIDREARKVRDGIMGMLYLQRMPTEFDVAMATVYYLADRNVSGETFHPSGGLRYERTPTGGELFGLPSPERLAELVGSTVYLIGEHLTEHLNLLARAYLERYGARQVVMIVETETGAETMRRLLHDHVEAGRLMTIVAGDQIEAAIDQAITRYGRPGPVVCTPFRPLPTVPLVGRKDSDWSTVLSEAEFAELCEHQLTHHFRVARKIALSDGASLALVTPETTATSTTEQFALANFIKTTLHAFTATIGVESERTAQRILINQVDLTRRARAEEPRDPHERQQELERFIEAVLLVTAPLPPEADTRYAGRIHRGRAITV
Take B2: in data set [4] (setting [8]), the Michaelis-Menten constant (Km) is 25.7 ± 2.6 µM and the Vmax is recorded as 635±14 mU/mg. Further, in data set [4] (setting [9]), the Michaelis-Menten constant (Km) is given as 0.03 ± 0.003 mM (tartronyl-CoA) mM and the Vmax amounted to 0.6 ± 0.01 U mg^−1.
